Key:
p38 MAP kinase = assay: Phospho-p38 in SU-DHL-1 cells (Luminex multiplex); type: cell-based, human; conditions: 24 hours
Method: (§1) FIGS. 8A-8F. Effect of EP009 on ALCL cells is mediated through selective activation of ERK1/2 and JNK1/2 stress signaling pathways, and inhibition of p70 S6 kinase growth signaling pathways. SU-DHL-1 cells were treated with vehicle (PBS) or increasing amounts of EP009 (0-50 μM) for 24 hours. Cells were then lysed, clarified, and subjected to Luminex multiplex analysis to detect phosphorylated (A) ERK1/2, (B) JNK1/2, (C) p70 S6 kinase, (D) IκBα, (E) CREB, and (F) p38. Values represent mean fluorescence intensity (MFI) normalized to corresponding GAPDH MFI, while error bars represent the standard deviation (n=2). Representative data from two independent experiments are shown. Statistical significance was determined using Student's t-test. (*, p<0.05).
(§2) The MILLIPLEX MAP 8-plex Multi-Pathway Signaling Phosphoprotein kit (Millipore) was used to detect phosphorylated ERK1/2 (Thr185/Tyr187), STAT3 (Ser727), JNK1/2 (Thr183/Tyr185), p70 S6 kinase (Thr412), IκBα (Ser32), STAT5A/B (Tyr694/699), CREB (Ser133), and p38 (Thr180/Tyr182). The MILLIPLEX MAP 5-plex STAT Phosphoprotein kit (Millipore) was used to detect phosphorylated STAT1 (Tyr701), STAT2 (Tyr690), STAT3 (Tyr705), STAT5A/B (Tyr694/699), and STAT6 (Tyr641). The MILLIPLEX MAP Human Apoptosis 3-plex kit (Millipore) was used to detect cleaved PARP, cleaved Caspase 3, and total GAPDH for protein normalization.

IκBα = assay: Phospho-IκBα in SU-DHL-1 cells (Luminex multiplex); type: cell-based, human; conditions: 24 hours
Method: as §1, §2

[1] = Stability in mouse plasma (LC-MS/MS); type: in vitro ADME; conditions: indicated concentrations and incubation time points
Method: FIG. 11 illustrates the dose-dependent effect of (FIG. 11A) freshly prepared EP-009(P) and (FIG. 11B) EP-009(P) stored in aqueous conditions for 48 hr at room temperature on IL-2/JAK3-dependent Kit225 cell viability. FIG. 12 illustrates LC-MS/MS detection of EP-009 (5 ng/ml) in mouse plasma at a retention time of 1.91 min.

AKT2 = AKT2 (Homo sapiens, UniProt P31751); assay: Kinase panel: AKT2; type: biochemical; conditions: 10 μM EP009
Method: (§3) Achieving JAK3 selectivity remains a significant challenge in the development of new small molecules for the treatment of cancer and immune-derived diseases. As such, the inventors employed cell-based screening assays of small-molecule libraries based upon the chemical scaffold of the established JAK3 inhibitor NC1153 (Stepkowski et al., J Immunol. (2005), 175(7):4236-4246) EP009 (FIG. 2A) was selected as a lead compound due to improved intrinsic stability (>95% purity in various solvents at 37° C. for 24 hours; FIG. 3) and high-degree of JAK3 selectivity. To test JAK3 versus JAK2 specificity of EP009, the IL-2/JAK3-dependent Kit225, and IL-3/JAK2-dependent BaF/3 cell lines were used. Kit225 and BaF/3 cells growing in the presence of IL-2 or IL-3, respectively, were treated with ascending concentrations of EP009 for 12 hours and cellular JAK3 and JAK2 tyrosine phosphorylation levels detected by Western blot analysis (FIGS. 2B and 2C). Following densitometric analysis, EP009 was determined to dose-dependently reduce IL-2-mediated JAK3 tyrosine phosphorylation with a cellular 50% inhibitory concentration (IC50) between 10 and 20 μM (FIG. 2B). […] To globally evaluate specificity, the inhibitory activity of EP009 was measured against a panel of protein kinases distributed throughout the kinome using the scanEDGE profiling service (KINOMEscan). […]

CDK9 = CDK9 (Homo sapiens, UniProt P50750); assay: Kinase panel: CDK9; type: biochemical; conditions: 10 μM EP009
CDK9, sequence (P50750 whole entry): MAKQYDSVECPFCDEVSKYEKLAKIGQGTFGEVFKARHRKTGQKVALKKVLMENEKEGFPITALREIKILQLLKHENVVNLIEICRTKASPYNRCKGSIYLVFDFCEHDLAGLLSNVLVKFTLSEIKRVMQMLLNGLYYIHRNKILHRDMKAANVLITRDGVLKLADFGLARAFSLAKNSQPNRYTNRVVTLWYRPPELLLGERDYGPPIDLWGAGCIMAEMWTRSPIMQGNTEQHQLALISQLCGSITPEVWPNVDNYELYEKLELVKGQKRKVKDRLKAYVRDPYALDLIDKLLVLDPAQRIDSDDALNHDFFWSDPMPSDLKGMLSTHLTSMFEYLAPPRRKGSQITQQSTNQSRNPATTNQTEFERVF
Method: as §3

CSNK1D = CSNK1D (Homo sapiens, UniProt P48730); assay: Kinase panel: CSNK1D; type: biochemical; conditions: 10 μM EP009
CSNK1D, sequence (P48730 whole entry): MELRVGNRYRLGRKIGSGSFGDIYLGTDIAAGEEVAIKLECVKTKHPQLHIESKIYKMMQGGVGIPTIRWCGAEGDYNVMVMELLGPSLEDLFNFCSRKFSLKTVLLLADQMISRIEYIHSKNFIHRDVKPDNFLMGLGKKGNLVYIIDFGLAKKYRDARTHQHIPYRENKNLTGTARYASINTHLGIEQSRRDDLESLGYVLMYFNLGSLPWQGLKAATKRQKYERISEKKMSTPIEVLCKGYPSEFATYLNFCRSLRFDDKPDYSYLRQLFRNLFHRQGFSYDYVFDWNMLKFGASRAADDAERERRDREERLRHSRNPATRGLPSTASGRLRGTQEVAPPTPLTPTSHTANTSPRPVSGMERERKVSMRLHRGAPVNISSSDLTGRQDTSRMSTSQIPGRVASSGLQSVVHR
Method: as §3

EPHA2 = EPHA2 (Homo sapiens, UniProt P29317); assay: Kinase panel: EPHA2; type: biochemical; conditions: 10 μM EP009
EPHA2, sequence (P29317 24-976): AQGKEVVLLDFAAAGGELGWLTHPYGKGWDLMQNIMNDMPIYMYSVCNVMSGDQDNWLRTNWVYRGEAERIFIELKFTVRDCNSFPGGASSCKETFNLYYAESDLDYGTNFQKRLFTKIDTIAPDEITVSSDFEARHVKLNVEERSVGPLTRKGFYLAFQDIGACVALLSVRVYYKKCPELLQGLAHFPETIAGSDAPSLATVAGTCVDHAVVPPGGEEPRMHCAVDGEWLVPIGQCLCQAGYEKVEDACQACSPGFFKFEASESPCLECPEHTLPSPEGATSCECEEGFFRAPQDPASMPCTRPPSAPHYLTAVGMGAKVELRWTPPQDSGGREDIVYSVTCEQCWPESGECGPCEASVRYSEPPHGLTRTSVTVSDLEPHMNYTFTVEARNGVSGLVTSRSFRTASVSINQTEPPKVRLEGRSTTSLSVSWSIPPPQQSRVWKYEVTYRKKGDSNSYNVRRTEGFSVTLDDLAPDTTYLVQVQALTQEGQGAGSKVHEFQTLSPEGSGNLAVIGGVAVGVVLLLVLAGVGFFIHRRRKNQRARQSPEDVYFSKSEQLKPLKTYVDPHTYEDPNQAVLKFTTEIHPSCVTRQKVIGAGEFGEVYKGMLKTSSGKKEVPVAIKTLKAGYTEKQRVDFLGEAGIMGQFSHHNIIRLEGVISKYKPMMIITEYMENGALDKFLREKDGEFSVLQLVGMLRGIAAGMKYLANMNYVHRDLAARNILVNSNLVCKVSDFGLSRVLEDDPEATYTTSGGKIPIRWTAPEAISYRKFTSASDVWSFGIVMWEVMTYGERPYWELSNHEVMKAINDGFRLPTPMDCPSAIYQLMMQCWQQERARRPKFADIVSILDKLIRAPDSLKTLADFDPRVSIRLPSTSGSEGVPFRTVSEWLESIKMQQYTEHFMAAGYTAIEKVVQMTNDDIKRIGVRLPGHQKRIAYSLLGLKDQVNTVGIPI
Method: as §3

MET = MET (Homo sapiens, UniProt P08581); assay: Kinase panel: MET; type: biochemical; conditions: 10 μM EP009
MET, sequence (P08581 25-1390): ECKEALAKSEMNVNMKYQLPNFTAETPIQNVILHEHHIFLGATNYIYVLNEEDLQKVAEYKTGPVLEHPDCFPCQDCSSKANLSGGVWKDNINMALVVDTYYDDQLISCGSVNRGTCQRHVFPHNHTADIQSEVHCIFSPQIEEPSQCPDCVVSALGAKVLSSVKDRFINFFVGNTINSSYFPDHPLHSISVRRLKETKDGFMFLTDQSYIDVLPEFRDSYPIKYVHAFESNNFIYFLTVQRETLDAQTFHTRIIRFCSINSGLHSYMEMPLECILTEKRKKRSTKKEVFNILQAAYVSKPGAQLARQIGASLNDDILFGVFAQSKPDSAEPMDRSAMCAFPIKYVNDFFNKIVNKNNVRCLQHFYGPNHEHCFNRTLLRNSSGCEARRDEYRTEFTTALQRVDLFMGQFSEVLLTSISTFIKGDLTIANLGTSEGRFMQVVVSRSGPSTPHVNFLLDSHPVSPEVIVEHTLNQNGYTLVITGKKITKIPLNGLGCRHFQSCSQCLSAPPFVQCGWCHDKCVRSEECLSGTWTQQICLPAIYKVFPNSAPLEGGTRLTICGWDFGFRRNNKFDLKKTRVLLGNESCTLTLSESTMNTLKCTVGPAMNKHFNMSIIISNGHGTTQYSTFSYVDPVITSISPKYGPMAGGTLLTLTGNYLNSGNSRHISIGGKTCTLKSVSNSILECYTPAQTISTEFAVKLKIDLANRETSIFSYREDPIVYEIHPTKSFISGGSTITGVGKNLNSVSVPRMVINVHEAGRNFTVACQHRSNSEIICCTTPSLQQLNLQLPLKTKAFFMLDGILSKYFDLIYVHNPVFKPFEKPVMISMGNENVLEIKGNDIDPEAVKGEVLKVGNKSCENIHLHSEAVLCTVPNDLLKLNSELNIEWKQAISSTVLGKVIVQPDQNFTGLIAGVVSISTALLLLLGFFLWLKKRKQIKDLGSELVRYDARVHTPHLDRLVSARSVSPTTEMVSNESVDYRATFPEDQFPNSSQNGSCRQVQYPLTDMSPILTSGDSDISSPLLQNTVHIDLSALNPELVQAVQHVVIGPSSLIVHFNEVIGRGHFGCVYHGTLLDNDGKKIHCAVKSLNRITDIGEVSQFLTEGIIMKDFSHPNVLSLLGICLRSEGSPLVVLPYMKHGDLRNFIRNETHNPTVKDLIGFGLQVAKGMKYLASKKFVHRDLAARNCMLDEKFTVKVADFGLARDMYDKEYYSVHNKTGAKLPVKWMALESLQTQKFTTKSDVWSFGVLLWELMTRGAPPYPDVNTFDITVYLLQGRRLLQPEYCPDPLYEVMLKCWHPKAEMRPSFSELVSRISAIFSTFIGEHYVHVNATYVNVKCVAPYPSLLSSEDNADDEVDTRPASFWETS
Method: as §3

PAK1 = PAK1 (Homo sapiens, UniProt Q13153); assay: Kinase panel: PAK1; type: biochemical; conditions: 10 μM EP009
Method: as §3

PLK1 = PLK1 (Homo sapiens, UniProt P53350); assay: Kinase panel: PLK1; type: biochemical; conditions: 10 μM EP009
PLK1, sequence (P53350 whole entry): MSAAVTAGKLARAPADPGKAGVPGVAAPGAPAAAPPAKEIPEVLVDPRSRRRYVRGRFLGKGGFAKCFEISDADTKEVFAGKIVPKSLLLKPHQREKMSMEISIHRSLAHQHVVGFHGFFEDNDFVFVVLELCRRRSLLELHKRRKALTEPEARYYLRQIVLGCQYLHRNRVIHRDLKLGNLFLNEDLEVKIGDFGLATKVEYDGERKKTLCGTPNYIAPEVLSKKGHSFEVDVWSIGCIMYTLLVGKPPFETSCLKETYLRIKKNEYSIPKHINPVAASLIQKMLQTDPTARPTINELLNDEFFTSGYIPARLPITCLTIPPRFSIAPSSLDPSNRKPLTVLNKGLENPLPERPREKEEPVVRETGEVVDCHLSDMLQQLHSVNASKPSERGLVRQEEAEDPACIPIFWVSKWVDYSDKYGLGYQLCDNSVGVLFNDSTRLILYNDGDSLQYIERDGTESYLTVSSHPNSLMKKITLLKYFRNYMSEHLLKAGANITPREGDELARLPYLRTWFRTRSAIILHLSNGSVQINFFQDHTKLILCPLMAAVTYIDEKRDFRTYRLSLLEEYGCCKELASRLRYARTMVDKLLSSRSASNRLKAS
Method: as §3

ROCK2 = ROCK2 (Homo sapiens, UniProt O75116); assay: Kinase panel: ROCK2; type: biochemical; conditions: 10 μM EP009
ROCK2, sequence (O75116 whole entry): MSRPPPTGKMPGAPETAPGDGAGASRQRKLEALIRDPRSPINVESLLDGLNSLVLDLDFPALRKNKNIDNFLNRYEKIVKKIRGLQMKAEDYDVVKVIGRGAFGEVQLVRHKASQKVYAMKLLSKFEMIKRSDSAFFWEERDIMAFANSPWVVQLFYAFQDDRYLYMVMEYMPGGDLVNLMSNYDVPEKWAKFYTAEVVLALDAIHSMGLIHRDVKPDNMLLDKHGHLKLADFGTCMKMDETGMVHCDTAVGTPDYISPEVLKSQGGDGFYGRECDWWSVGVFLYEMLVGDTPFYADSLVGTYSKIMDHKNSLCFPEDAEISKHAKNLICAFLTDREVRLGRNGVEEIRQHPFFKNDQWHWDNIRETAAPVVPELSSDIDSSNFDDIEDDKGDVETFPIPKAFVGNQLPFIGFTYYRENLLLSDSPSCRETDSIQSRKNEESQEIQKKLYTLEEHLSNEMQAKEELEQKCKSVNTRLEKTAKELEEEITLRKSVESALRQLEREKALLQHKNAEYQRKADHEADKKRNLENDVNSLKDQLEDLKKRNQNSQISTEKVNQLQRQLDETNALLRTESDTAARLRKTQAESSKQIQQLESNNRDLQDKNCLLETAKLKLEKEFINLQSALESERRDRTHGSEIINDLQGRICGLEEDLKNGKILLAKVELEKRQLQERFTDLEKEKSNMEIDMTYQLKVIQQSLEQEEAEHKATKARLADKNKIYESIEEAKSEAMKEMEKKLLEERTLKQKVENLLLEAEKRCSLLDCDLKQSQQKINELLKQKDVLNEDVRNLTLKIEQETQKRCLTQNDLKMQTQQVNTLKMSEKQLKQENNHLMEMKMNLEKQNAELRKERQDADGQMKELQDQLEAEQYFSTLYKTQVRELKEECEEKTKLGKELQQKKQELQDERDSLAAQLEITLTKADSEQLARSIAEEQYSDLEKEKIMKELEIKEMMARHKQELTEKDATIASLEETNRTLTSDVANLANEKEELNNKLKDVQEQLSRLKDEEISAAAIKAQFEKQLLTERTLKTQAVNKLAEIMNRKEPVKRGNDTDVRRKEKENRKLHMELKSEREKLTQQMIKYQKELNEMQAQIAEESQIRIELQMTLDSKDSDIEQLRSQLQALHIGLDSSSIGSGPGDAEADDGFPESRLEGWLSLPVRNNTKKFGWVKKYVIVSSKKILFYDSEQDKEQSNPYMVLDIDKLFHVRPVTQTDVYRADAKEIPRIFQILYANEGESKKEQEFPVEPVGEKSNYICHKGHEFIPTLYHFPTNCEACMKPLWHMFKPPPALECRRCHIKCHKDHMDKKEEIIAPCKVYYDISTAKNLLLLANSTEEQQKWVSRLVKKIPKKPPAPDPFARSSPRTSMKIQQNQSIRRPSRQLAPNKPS
Method: as §3

C=C1CCCCCCCCCC(CO)C1=O (centres unmarked) [EP009, 2-(Hydroxymethyl)-12-methylenecyclododecanone]
p38 MAP kinase phosphorylation status (p38 MAP kinase): No statistically significant change
IκBα phosphorylation status (IκBα): No statistically significant change
stability in mouse plasma [1]: stable and readily detected
Kinase Activity (% of Control) (AKT2): 100 % of Control
Kinase Activity (% of Control) (CDK9): 90 % of Control
Kinase Activity (% of Control) (CSNK1D): 100 % of Control
Kinase Activity (% of Control) (EPHA2): 100 % of Control
Kinase Activity (% of Control) (MET): 89 % of Control
Kinase Activity (% of Control) (PAK1): 100 % of Control
Kinase Activity (% of Control) (PLK1): 100 % of Control
Kinase Activity (% of Control) (ROCK2): 99 % of Control

— patent US9371265B2, “Compositions and methods related to inhibitors of JAK kinase” (EP PHARMA, INC., priority 2012, dated 2016)
